Experimental findings from ChEMBL document CHEMBL1127639, “Structural features important for sigma 1 receptor binding” (J Med Chem, 1994) are described below.

This assay in a line: Binding affinity against [3H]-3-PPP labelled sigma sites.

A word on the Ki: it is the equilibrium dissociation constant of an inhibitor or competing ligand from its target. Lower therefore signals a stronger hold on the target. Consider `CN(CCc1ccccc1)CCN1CCCC1`, for which the affinity, expressed as Ki, was 7.4 nM.
